Data: the supplement of paper PMC4858399
Where a name gives a salt, the structure may show the parent alone.

Tests used:
[1] = system: Caenorhabditis elegans N2; assay: mean nematode size ln(EXT) after 48 h, plate-adjusted (DMSO control set to 6) (ln(EXT), control-adjusted); higher = larger nematodes / less growth inhibition; details: exposure time 48 h
Summary of the method: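 A growth model removed debris from Biosort extinction readings taken on each worm. These worms were synchronised C. elegans N2 L1 larvae, 50 per well in 4–6 wells per treatment, grown for 48 h at 20°C in K-medium with killed OP50, 1% DMSO and 0.5–200 µM chemical. Readings were natural-logged and averaged by well to give mean size. On each plate, the vehicle control mean was subtracted and 6 was added.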

[2] = system: Caenorhabditis elegans N2; assay: lowest effective concentration for larval growth inhibition (size below effect threshold); higher = less potent; details: exposure time 48 h
Summary of the method: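 C. elegans N2 L1 larvae (50 per 96-well) were grown 48 h at 20°C in K-medium with killed bacteria, 1% DMSO and 0.5, 1, 5, 10, 50, 100 or 200 µM chemical. The Biosort measured per-worm extinction as size, and these were log-transformed into well means. The lowest effective concentration is the first dose where the plate-adjusted mean size drops under the 5.665 threshold and stays under it at higher doses.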

SMILES | mean nematode size ln(EXT) (ln) ([1]; 0.5 µM) | mean nematode size ln(EXT) (ln) ([1]; 1 µM) | mean nematode size ln(EXT) (ln) ([1]; 5 µM) | mean nematode size ln(EXT) (ln) ([1]; 10 µM) | mean nematode size ln(EXT) (ln) ([1]; 50 µM) | mean nematode size ln(EXT) (ln) ([1]; 100 µM) | mean nematode size ln(EXT) (ln) ([1]; 200 µM) | lowest effective concentration [2]
CC(=O)OC[C@H]1O[C@@](COC(C)=O)(O[C@H]2O[C@H](COC(C)=O)[C@@H](OC(C)=O)[C@H](OC(C)=O)[C@H]2OC(C)=O)[C@@H](OC(C)=O)[C@@H]1OC(C)=O [Sucrose octaacetate] | 5.78 | 5.75 | 5.76 | 5.75 | 5.72 | 5.75 | 5.73 | > 200 µM
OC[C@H]1O[C@@](CO)(O[C@H]2O[C@H](CO)[C@@H](O)[C@H](O)[C@H]2O)[C@@H](O)[C@@H]1O [Sucrose] | 6.01 | 5.97 | 6.04 | 5.98 | 5.84 | 5.87 | 5.82 | > 200 µM
Oc1ccc2ccccc2c1N=Nc1ccccc1 [Sudan I] | 5.91 | 5.88 | 5.87 | 5.83 | 5.7 | 5.77 | 5.68 | > 200 µM
O=C(O)c1cc(/N=N/c2ccc(S(=O)(=O)Nc3ccccn3)cc2)ccc1O [Sulfasalazine] | 5.85 | 5.91 | 5.87 | 5.87 | 5.92 | 5.9 | 5.94 | > 200 µM
O=c1n(Cl)c(=O)n(Cl)c(=O)n1Cl [Symclosene] | 5.9 | 5.76 | 5.62 | 5.82 | 5.73 | 5.69 | 5.74 | > 200 µM
O=C(O)C1=NN(c2ccc(S(=O)(=O)O)cc2)C(=O)C1N=Nc1ccc(S(=O)(=O)O)cc1 (centres undefined) [Tartrazine] | 6.02 | 5.96 | 5.97 | 5.98 | 6.03 | 5.85 | 5.92 | > 200 µM
O=C1CCC(N2C(=O)c3ccccc3C2=O)C(=O)N1 (centres undefined) [Thalidomide] | 5.98 | 5.95 | 5.98 | 5.97 | 5.97 | 5.85 | 5.97 | > 200 µM
Cn1cnc2c1c(=O)[nH]c(=O)n2C [Theobromine] | 5.83 | 5.87 | 5.98 | 6.03 | 5.87 | 5.86 | 5.83 | > 200 µM
N#C/N=C1\SCCN1Cc1ccc(Cl)nc1 [Thiacloprid] | 5.99 | 5.88 | 5.94 | 5.96 | 5.96 | 5.89 | 5.81 | > 200 µM
CN1COCN(Cc2cnc(Cl)s2)/C1=N\[N+](=O)[O-] [Thiamethoxam] | 5.81 | 5.7 | 5.73 | 5.88 | 5.8 | 5.88 | 5.91 | > 200 µM
Cc1ccc(C(C)C)c(O)c1 [Thymol] | 5.92 | 5.82 | 5.66 | 5.65 | 5.67 | 5.51 | 5.72 | > 200 µM
Cc1ccc(S(=O)(=O)NC(=O)NN2CCCCCC2)cc1 [Tolazamide] | 5.93 | 5.92 | 5.93 | 5.91 | 5.61 | 5.87 | 5.79 | > 200 µM
Cc1ccc(N=C=O)cc1N=C=O [Toluene-2,4-diisocyanate] | 5.73 | 5.8 | 5.73 | 5.78 | 5.7 | 5.61 | 5.67 | > 200 µM
CCCCC(CC)C(=O)OCCOCCOCCOC(=O)C(CC)CCCC (centres undefined) [Tri(ethylene glycol) bis(2-ethylhexanoate)] | 5.84 | 5.86 | 6 | 5.97 | 5.86 | 5.84 | 5.79 | > 200 µM
CC(=O)OCC(COC(C)=O)OC(C)=O [Triacetin] | 5.85 | 5.99 | 5.89 | 5.85 | 5.97 | 5.78 | 5.73 | > 200 µM
C[C@]12C=CC(=O)C=C1CC[C@H]1[C@@H]3C[C@@H](O)[C@](O)(C(=O)CO)[C@@]3(C)C[C@H](O)[C@@]12F [Triamcinolone] | 5.9 | 5.86 | 5.87 | 5.87 | 5.92 | 5.86 | 5.79 | > 200 µM
CCCCN(CCCC)CCCC [Tributylamine] | 5.91 | 6 | 5.98 | 6.1 | 5.96 | 5.92 | 5.8 | > 200 µM
O=C(O)C(Cl)(Cl)Cl [Trichloroacetic acid] | 5.84 | 5.85 | 5.86 | 5.91 | 5.89 | 5.91 | 5.67 | > 200 µM
OCCN(CCO)CCO [Triethanolamine] | 5.65 | 5.64 | 5.71 | 5.66 | 5.09 | 5.38 | 5.69 | > 200 µM

SMILES | mean nematode size ln(EXT) (ln) ([1]; 0.5 µM) | mean nematode size ln(EXT) (ln) ([1]; 1 µM) | mean nematode size ln(EXT) (ln) ([1]; 5 µM) | mean nematode size ln(EXT) (ln) ([1]; 10 µM) | mean nematode size ln(EXT) (ln) ([1]; 50 µM) | mean nematode size ln(EXT) (ln) ([1]; 100 µM) | mean nematode size ln(EXT) (ln) ([1]; 200 µM) | lowest effective concentration [2]
CCOC(=O)CC(O)(CC(=O)OCC)C(=O)OCC [Triethyl citrate] | 6.01 | 5.99 | 6.04 | 6.03 | 6.03 | 6.08 | 5.71 | > 200 µM
CC(=O)OCCOCCOCCOC(C)=O [Triethylene Glycol Diacetate] | 5.82 | 5.87 | 5.88 | 5.91 | 5.83 | 5.96 | 5.82 | > 200 µM
OCCOCCOCCO [Triethylene glycol] | 5.84 | 5.84 | 5.95 | 5.98 | 5.88 | 5.87 | 5.84 | > 200 µM
CC(C)CCCCCCOC(=O)c1ccc(C(=O)OCCCCCCC(C)C)c(C(=O)OCCCCCCC(C)C)c1 [Triisononyl Trimellitate] | 5.94 | 5.89 | 5.94 | 5.86 | 5.81 | 5.73 | 5.68 | > 200 µM
c1ccc(OP(Oc2ccccc2)Oc2ccccc2)cc1 [Triphenyl phosphite] | 5.86 | 5.75 | 5.77 | 5.81 | 5.75 | 5.95 | 5.72 | > 200 µM
COCC(C)OCC(C)OCC(C)O (centres undefined) [Tripropylene glycol monomethyl ether] | 5.71 | 6.01 | 5.88 | 5.89 | 5.91 | 5.9 | 5.72 | > 200 µM
O=P(OCCCl)(OCCCl)OCCCl [Tris(2-chloroethyl) phosphate] | 5.87 | 5.82 | 5.89 | 5.86 | 5.86 | 5.87 | 5.77 | > 200 µM
CCCCC(CC)COP(=O)(OCC(CC)CCCC)OCC(CC)CCCC (centres undefined) [Tris(2-ethylhexyl) phosphate] | 5.94 | 5.99 | 5.94 | 5.96 | 5.92 | 5.34 | 5.78 | > 200 µM
O=[N+]([O-])C(CO)(CO)CO [Tris(hydroxymethyl)nitromethane] | 5.91 | 5.9 | 5.92 | 5.75 | 5.92 | 5.89 | 5.75 | > 200 µM
NC(N)=O [Urea] | 5.83 | 5.73 | 5.79 | 5.7 | 5.77 | 5.86 | 5.74 | > 200 µM
CCOC(N)=O [Urethane (ethyl carbamate)] | 5.96 | 5.93 | 5.97 | 6 | 5.95 | 5.91 | 5.97 | > 200 µM
CCCC(CCC)C(=O)O [Valproic Acid] | 5.81 | 5.92 | 6.12 | 6.03 | 6.06 | 6.03 | 5.91 | > 200 µM
COc1cccc([C@H](O)C2CCN(CCc3ccc(F)cc3)CC2)c1OC [Volinanserin] | 5.67 | 5.79 | 5.78 | 5.95 | 5.83 | 5.8 | 5.78 | > 200 µM
CN(C)C(=S)[S-].CN(C)C(=S)[S-].[Zn+2] [Ziram] | 5.98 | 5.89 | 5.78 | 5.83 | 5.84 | 5.75 | 5.77 | > 200 µM
CCC(C)(NC(=O)c1cc(Cl)c(C)c(Cl)c1)C(=O)CCl (centres undefined) [Zoxamide] | 5.75 | 5.81 | 5.67 | 5.64 | 5.48 | 4.67 | 5.7 | > 200 µM
OC[C@H]1O[C@@H]2O[C@H]3[C@H](O)[C@@H](O)[C@@H](O[C@H]4[C@H](O)[C@@H](O)[C@@H](O[C@H]5[C@H](O)[C@@H](O)[C@@H](O[C@H]6[C@H](O)[C@@H](O)[C@@H](O[C@H]7[C@H](O)[C@@H](O)[C@@H](O[C@H]1[C@H](O)[C@H]2O)O[C@@H]7CO)O[C@@H]6CO)O[C@@H]5CO)O[C@@H]4CO)O[C@@H]3CO [alpha-Cyclodextrin] | 5.83 | 5.83 | 5.77 | 5.87 | 5.88 | 5.82 | 5.74 | > 200 µM
ClC1C(Cl)C(Cl)C(Cl)C(Cl)C1Cl (stereo not drawn) [beta-1,2,3,4,5,6-Hexachlorocyclohexane] | 5.52 | 5.63 | 5.65 | 5.7 | 5.74 | 5.75 | 5.87 | > 200 µM
Cc1cc(-c2ccc(N)c(C)c2)ccc1N [o-Tolidine] | 5.82 | 5.91 | 5.9 | 5.97 | 5.85 | 5.84 | 5.86 | > 200 µM
COc1ccc(C)cc1N [p-Cresidine] | 5.84 | 5.85 | 5.84 | 5.83 | 5.85 | 5.89 | 5.83 | > 200 µM
